Data from the OPERA property sets (Mansouri et al. 2018).

Row | Compound | logP
1 | O=[N+]([O-])c1cccc2c([N+](=O)[O-])cccc12 | 2.58
2 | Nc1cccc2cc3ccccc3cc12 | 3.69
3 | Cc1ccc2cccc([N+](=O)[O-])c2n1 | 1.99
4 | Nc1ccccc1-c1ccccc1N | 1.34
5 | Cc1ccc(N)cc1N | 0.14
6 | O=[N+]([O-])c1ccc2c3c(cccc13)CC2 | 3.85
7 | O=[N+]([O-])c1cc([N+](=O)[O-])c2ccccc2c1 | 2.83
8 | Nc1cc2ccccc2c2ccccc12 | 3.56
9 | Nc1cccc(C(F)(F)F)c1 | 2.29
10 | O=C1Nc2ccc([N+](=O)[O-])cc2C1=O | 0.47
11 | Nc1ccc2c(c1)Cc1ccccc1-2 | 3.14
12 | O=[N+]([O-])c1cccc2cccc([N+](=O)[O-])c12 | 2.52
13 | COc1ccc(N)c(C)c1 | 1.23
14 | Nc1ccc2ccc3cccc4ccc1c2c34 | 4.31
15 | Nc1ccc(Oc2ccccc2)cc1 | 2.96
16 | Nc1cc(Cl)ccc1O | 1.81
17 | Nc1cccc2c1Cc1ccccc1-2 | 3.18
18 | O=[N+]([O-])c1ccc2ccccc2c1 | 3.24
19 | Nc1ccc2c3c(cccc13)-c1ccccc1-2 | 4.2
20 | Cc1ccc(O)c(N)c1 | 1.16
21 | COc1cc(-c2ccc(N)c(OC)c2)ccc1N | 1.81
22 | Cc1ccc(C)c(N)c1 | 1.83
23 | Cc1ccc(N)c(N)c1 | 0.66
24 | Nc1ccc(Cl)cc1[N+](=O)[O-] | 2.72
